# Source: ChEMBL document CHEMBL1201862, “PubChem BioAssay data set” (2004)
#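 48-hour exposure; five concentrations; linearly interpolated endpoints. Abbreviation: GI50, concentration required for 50% inhibition of growth.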 Activity calls are given as the source filed them. Cut-off read from the data, not from the text of the source: active = GI50 up to about 1.1 µM and inactive = higher.
# Tests used:
# Test in all cases: NCI tumour cell line growth inhibition, 48 h
# KM-20L2 = test system: KM-20L2
# HL-60 = test system: HL-60
# HCT-116 = test system: HCT-116
# M19-MEL = test system: M19-MEL
# DMS-114 = test system: DMS-114
# OVCAR-5 = test system: OVCAR-5
# OVCAR-4 = test system: OVCAR-4
# HOP-62 = test system: HOP-62
# UACC-257 = test system: UACC-257
# M14 = test system: M14
# HCT-15 = test system: HCT-15
# ACHN = test system: ACHN
# LXFL 529 = test system: LXFL 529
# MOLT-4 = test system: MOLT-4
# A549 = test system: A549
# SK-MEL-28 = test system: SK-MEL-28
# SK-MEL-2 = test system: SK-MEL-2
# NCI-H226 = test system: NCI-H226
# SR = test system: SR
# SNB-19 = test system: SNB-19
# DLD-1 = test system: DLD-1
# U-251 = test system: U-251
# HOP-18 = test system: HOP-18
# OVCAR-8 = test system: OVCAR-8
# Malme-3M = test system: Malme-3M
# DMS-273 = test system: DMS-273
# RPMI-8226 = test system: RPMI-8226
# HOP-92 = test system: HOP-92
# NCI-H23 = test system: NCI-H23
# SK-OV-3 = test system: SK-OV-3
# IGROV-1 = test system: IGROV-1
# SNB-75 = test system: SNB-75
# SNB-78 = test system: SNB-78
# RXF 631 = test system: RXF 631
# SW-620 = test system: SW-620
# SN12C = test system: SN12C
# NCI-H522 = test system: NCI-H522
# OVCAR-3 = test system: OVCAR-3
# SK-MEL-5 = test system: SK-MEL-5
# 786-0 = test system: 786-0
# CAKI-1 = test system: CAKI-1
# SF-295 = test system: SF-295
# NCI-H460 = test system: NCI-H460
# K562 = test system: K562
# HT-29 = test system: HT-29
# COLO 205 = test system: COLO 205
# EKVX = test system: EKVX
# SF-539 = test system: SF-539
# KM12 = test system: KM12
# UO-31 = test system: UO-31
# A498 = test system: A498
# TK-10 = test system: TK-10
# XF498 = test system: XF498
# UACC-62 = test system: UACC-62
# HCC 2998 = test system: HCC 2998
# CCRF-CEM = test system: CCRF-CEM
# SF-268 = test system: SF-268
# RXF 393 = test system: RXF 393
# LOX IMVI = test system: LOX IMVI
compound,measurement,setting,value
Cc1c(C(=O)/C=C/c2ccccc2[N+](=O)[O-])[n+]([O-])c2ccccc2[n+]1[O-],GI50,KM-20L2,5.61 µM (inactive)
same,GI50,HL-60,1.58 µM (inactive)
same,GI50,HCT-116,3.96 µM (inactive)
same,GI50,M19-MEL,5.97 µM (inactive)
same,GI50,DMS-114,5.55 µM (inactive)
same,GI50,OVCAR-5,13.7 µM (inactive)
same,GI50,OVCAR-4,9.64 µM (inactive)
same,GI50,HOP-62,18.2 µM (inactive)
same,GI50,UACC-257,7.53 µM (inactive)
same,GI50,M14,11 µM (inactive)
same,GI50,HCT-15,3.3 µM
same,GI50,ACHN,10.6 µM (inactive)
same,GI50,LXFL 529,4.89 µM (inactive)
same,GI50,MOLT-4,5.5 µM (inactive)
same,GI50,A549,12.5 µM (inactive)
same,GI50,SK-MEL-28,11.7 µM (inactive)
same,GI50,SK-MEL-2,11.3 µM (inactive)
same,GI50,NCI-H226,11.4 µM (inactive)
same,GI50,SR,4.34 µM (inactive)
same,GI50,SNB-19,19.1 µM (inactive)
same,GI50,DLD-1,3.53 µM (inactive)
same,GI50,U-251,15.2 µM (inactive)
same,GI50,HOP-18,15.4 µM (inactive)
same,GI50,OVCAR-8,3.9 µM (inactive)
same,GI50,Malme-3M,13.3 µM (inactive)
same,GI50,DMS-273,3.61 µM (inactive)
same,GI50,RPMI-8226,2.96 µM (inactive)
same,GI50,HOP-92,13.6 µM (inactive)
same,GI50,NCI-H23,4.63 µM (inactive)
same,GI50,SK-OV-3,17.9 µM (inactive)
same,GI50,IGROV-1,10.6 µM (inactive)
same,GI50,SNB-75,13.2 µM (inactive)
same,GI50,SNB-78,12.3 µM (inactive)
same,GI50,RXF 631,4.34 µM (inactive)
same,GI50,SW-620,5.13 µM (inactive)
same,GI50,SN12C,6 µM (inactive)
same,GI50,NCI-H522,3.94 µM (inactive)
same,GI50,OVCAR-3,3.76 µM (inactive)
same,GI50,SK-MEL-5,12 µM (inactive)
same,GI50,786-0,5.53 µM (inactive)
same,GI50,CAKI-1,3.61 µM (inactive)
same,GI50,SF-295,7.5 µM (inactive)
same,GI50,NCI-H460,4.32 µM (inactive)
same,GI50,K562,3.39 µM (inactive)
same,GI50,HT-29,8.57 µM (inactive)
same,GI50,COLO 205,3.13 µM (inactive)
same,GI50,EKVX,14.4 µM (inactive)
same,GI50,SF-539,3.78 µM (inactive)
same,GI50,KM12,10.3 µM (inactive)
same,GI50,UO-31,18.8 µM (inactive)
same,GI50,A498,13.3 µM (inactive)
O=C(N/C(=C\c1cc(Cl)ccc1Cl)c1nc2c(O)nc(S)nc2[nH]1)c1ccccc1,GI50,KM-20L2,41.4 µM (inactive)
same,GI50,HL-60,4.82 µM (inactive)
same,GI50,HCT-116,7.91 µM (inactive)
same,GI50,TK-10,> 75.3 µM (inactive)
same,GI50,M19-MEL,27 µM (inactive)
same,GI50,DMS-114,25.2 µM (inactive)
same,GI50,OVCAR-5,> 100 µM (inactive)
same,GI50,OVCAR-4,39.9 µM (inactive)
same,GI50,HOP-62,> 100 µM (inactive)
same,GI50,XF498,> 48.6 µM (inactive)
same,GI50,M14,22.9 µM (inactive)
same,GI50,UACC-62,19.7 µM (inactive)
same,GI50,HCT-15,17.2 µM
same,GI50,ACHN,37.1 µM (inactive)
same,GI50,LXFL 529,15.6 µM (inactive)
same,GI50,MOLT-4,16.1 µM (inactive)
same,GI50,A549,98.6 µM (inactive)
same,GI50,HCC 2998,16.4 µM (inactive)
same,GI50,SK-MEL-28,28.1 µM (inactive)
same,GI50,CCRF-CEM,13.4 µM (inactive)
same,GI50,SK-MEL-2,46.1 µM (inactive)
same,GI50,NCI-H226,> 100 µM (inactive)
same,GI50,SR,25.5 µM (inactive)
same,GI50,SNB-19,> 55.2 µM (inactive)
same,GI50,DLD-1,15.2 µM (inactive)
same,GI50,U-251,32.1 µM (inactive)
same,GI50,OVCAR-8,25.7 µM (inactive)
same,GI50,Malme-3M,> 90.2 µM (inactive)
same,GI50,RPMI-8226,12.6 µM (inactive)
same,GI50,HOP-92,> 44.6 µM (inactive)
same,GI50,SF-268,33.4 µM (inactive)
same,GI50,NCI-H23,25.8 µM (inactive)
same,GI50,SK-OV-3,98.2 µM (inactive)
same,GI50,IGROV-1,> 42.4 µM (inactive)
same,GI50,SNB-75,34.2 µM (inactive)
same,GI50,SNB-78,55.3 µM (inactive)
same,GI50,RXF 631,20.4 µM (inactive)
same,GI50,SW-620,13.7 µM (inactive)
same,GI50,SN12C,30.1 µM (inactive)
same,GI50,RXF 393,21.6 µM (inactive)
same,GI50,NCI-H522,38 µM (inactive)
same,GI50,OVCAR-3,43.5 µM (inactive)
same,GI50,SK-MEL-5,47 µM (inactive)
same,GI50,786-0,17.5 µM (inactive)
same,GI50,CAKI-1,38.5 µM (inactive)
same,GI50,LOX IMVI,22.1 µM (inactive)
same,GI50,SF-295,37.4 µM (inactive)
same,GI50,NCI-H460,34.5 µM (inactive)
same,GI50,K562,7.43 µM (inactive)
same,GI50,HT-29,20.8 µM (inactive)
same,GI50,COLO 205,37.4 µM (inactive)
same,GI50,EKVX,37.8 µM (inactive)
same,GI50,SF-539,27.7 µM (inactive)
same,GI50,KM12,23.4 µM (inactive)
same,GI50,UO-31,23.6 µM (inactive)
same,GI50,A498,> 100 µM (inactive)
